In patent US6509163B1, “Methods of screening modulators of mammalian P2X7 purinergic receptors” (Glaxo Group Limited, priority 1997, dated 2003):

Experiments:
Type in all cases: cell-based
rP2X7 receptor = target: T1, rP2X7 receptor (Rattus norvegicus, UniProt Q64663); test: Whole-cell recordings in HEK293 cells transiently transfected with rP2X7 receptors (Example 3)
T1 construct: yielding a construct that encoded the entire P2X7 protein; expressed in transfected cells
T1 sequence (Q64663 1-595): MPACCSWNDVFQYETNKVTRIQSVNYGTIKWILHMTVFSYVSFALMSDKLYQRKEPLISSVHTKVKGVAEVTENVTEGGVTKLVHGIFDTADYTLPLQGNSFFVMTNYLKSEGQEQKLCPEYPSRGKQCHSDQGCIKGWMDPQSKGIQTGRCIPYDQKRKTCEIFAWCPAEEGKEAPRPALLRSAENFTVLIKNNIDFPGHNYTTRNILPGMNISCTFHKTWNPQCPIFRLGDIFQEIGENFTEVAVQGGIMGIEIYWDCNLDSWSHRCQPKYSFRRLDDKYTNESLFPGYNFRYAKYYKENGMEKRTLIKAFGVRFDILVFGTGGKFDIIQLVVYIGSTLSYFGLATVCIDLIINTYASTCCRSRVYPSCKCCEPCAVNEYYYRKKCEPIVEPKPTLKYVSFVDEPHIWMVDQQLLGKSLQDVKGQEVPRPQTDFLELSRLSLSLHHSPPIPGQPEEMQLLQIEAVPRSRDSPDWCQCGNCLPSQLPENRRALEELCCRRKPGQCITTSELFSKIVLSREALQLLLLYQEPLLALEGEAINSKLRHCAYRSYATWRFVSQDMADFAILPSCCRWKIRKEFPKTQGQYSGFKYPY
Description: (§1) Cell culture. HEK293 cells were transiently transfected with cDNA (1 μg/ml) and lipofectin dissolved in Optimem (GIBCO) placed into petri dishes containing four coverslips onto which cells were plated at a density of about 8×10^4/coverslip. Cells were washed 5 h later and normal DMEM applied. Electrophysiological studies or dye uptake measurements were carried out 18-49 h later. For each set of transfections, parallel experiments were performed on HEK cells transfected with cDNA encoding both rP2X7 and hP2X7 receptors.
(§2) Electrophysiological experiments. Whole-cell recordings were made using the EPC9 patch-clamp amplifier and Pulse acquisition programs (HEKA, Lambrecht, Germany). Patch pipettes (5-7 MΩ) contained (mM) CsCl or NaCl 154, EGTA 10, HEPES 5. The normal extracellular solution contained (mM) NaCg 147, KCl2, CaCl2 2, MgCl2 1, HEPES 10 and glucose 12, and the “low divalent” solution had no magnesium and 0.3 mM CaCl2. Agonists were delivered by U-tube delivery system; antagonists, when applied, were present in both superfusion and U-tube. Experiments were carried out at room temperature.

hP2X7 receptor = target: T2, hP2X7 receptor (Homo sapiens, UniProt Q99572); test: Whole-cell recordings in HEK293 cells transiently transfected with hP2X7 receptors (Example 3)
T2 construct: a clone containing the complete open reading frame of the hP2X7 receptor was constructed; expressed in transfected cells; host or cells: HEK293 (transient), pcDNA3
T2 sequence (Q99572 1-595): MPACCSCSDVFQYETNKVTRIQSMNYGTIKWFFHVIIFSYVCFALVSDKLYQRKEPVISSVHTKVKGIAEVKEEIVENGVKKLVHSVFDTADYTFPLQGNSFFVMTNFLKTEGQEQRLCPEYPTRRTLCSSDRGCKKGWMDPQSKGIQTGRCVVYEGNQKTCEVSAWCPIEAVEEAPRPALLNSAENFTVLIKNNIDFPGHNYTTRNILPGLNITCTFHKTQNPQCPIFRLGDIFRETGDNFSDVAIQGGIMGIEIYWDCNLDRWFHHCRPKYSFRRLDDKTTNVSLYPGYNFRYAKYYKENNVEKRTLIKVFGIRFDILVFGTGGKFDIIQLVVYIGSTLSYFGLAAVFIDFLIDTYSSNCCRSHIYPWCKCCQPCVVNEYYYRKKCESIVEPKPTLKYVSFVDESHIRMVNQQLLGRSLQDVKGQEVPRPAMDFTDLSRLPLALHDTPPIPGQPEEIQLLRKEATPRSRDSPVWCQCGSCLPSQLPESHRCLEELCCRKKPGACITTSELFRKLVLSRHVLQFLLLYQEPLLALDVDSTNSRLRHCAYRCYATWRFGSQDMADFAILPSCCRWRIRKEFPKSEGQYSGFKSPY
Description: as §1, §2

P2X7 receptor = target: T3, P2X7 receptor (Rattus norvegicus, UniProt Q64663); test: Whole-cell recordings of agonist-evoked currents in HEK293 cells transfected with rat P2X7 cDNA (Example 2); conditions: inward currents, brief application (0.5 to 2 s)
T3 construct: yielding a construct that encoded the entire P2X7 protein; expressed in transfected cells
T3 sequence (Q64663 1-595): T1 sequence (Q64663 1-595)

In the case of Nc1ncnc2c1ncn2[C@@H]1O[C@H](COP(=O)(O)OP(=O)(O)OP(=O)(O)O)[C@@H](OC(=O)c2ccc(C(=O)c3ccccc3)cc2)[C@H]1O [BzATP, 3′-O-(4-benzoyl)benzoyl ATP], the “cation current induced by maximal concentration of BzATP” value (rP2X7 receptor; 30 μM BzATP, n=12) is reported as 1869±286 pA, the “current measured at 30 s, of the peak current” value (rP2X7 receptor; low extracellular divalent concentrations, n=13) is reported as 80±3% and the “EC50 at hP2X7 relative to rP2X7 receptor (fold greater)” value (hP2X7 receptor) is reported as 25 fold. For the same compound, the “potency to activate the receptor relative to ATP” value (hP2X7 receptor) was 10 fold, the “cation current induced by maximal concentration of BzATP” value (hP2X7 receptor; 300 μM BzATP, n=12) was 1777±342 pA and the “current measured at 30 s, of the peak current” value (hP2X7 receptor; BzATP 300 μM, low extracellular divalent concentrations, n=16) was 18±2%. The “agonist order of potency” value (P2X7 receptor) was “BzATP>>ATP>2MeSATP>ATP-γ-S>>ADP”.
